Experimental findings from ChEMBL document CHEMBL1201862, “PubChem BioAssay data set” (2004) are described below.

The source made the active and inactive calls. Where only a bound is given, the exact number is not on record here.

Test [1] deals with T1, Corticotropin-releasing factor receptor 2/Corticotropin-releasing factor-binding protein (Homo sapiens, UniProt P24387+Q13324).
T1 sequence (Q13324 whole entry): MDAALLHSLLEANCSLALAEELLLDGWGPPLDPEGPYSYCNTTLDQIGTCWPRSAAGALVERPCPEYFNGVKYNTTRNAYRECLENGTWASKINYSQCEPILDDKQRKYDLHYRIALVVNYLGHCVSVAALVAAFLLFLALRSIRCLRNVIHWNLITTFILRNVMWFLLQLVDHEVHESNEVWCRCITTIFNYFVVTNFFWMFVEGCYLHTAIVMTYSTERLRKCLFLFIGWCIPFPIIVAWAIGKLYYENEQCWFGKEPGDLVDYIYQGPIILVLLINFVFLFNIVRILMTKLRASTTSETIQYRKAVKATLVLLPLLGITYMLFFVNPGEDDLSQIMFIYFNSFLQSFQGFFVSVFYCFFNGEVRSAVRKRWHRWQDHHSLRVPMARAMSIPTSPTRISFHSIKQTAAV
T1 sequence (P24387 whole entry): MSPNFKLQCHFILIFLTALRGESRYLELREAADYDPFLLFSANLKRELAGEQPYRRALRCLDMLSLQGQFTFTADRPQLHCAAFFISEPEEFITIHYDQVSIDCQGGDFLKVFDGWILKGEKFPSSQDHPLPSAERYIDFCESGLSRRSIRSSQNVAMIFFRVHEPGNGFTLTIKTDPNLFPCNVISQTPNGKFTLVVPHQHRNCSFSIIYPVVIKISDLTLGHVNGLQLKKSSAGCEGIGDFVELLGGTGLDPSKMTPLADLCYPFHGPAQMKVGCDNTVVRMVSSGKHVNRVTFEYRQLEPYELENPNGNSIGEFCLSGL
The experiment in a line: Dose Response confirmation of uHTS hits for small molecule antagonists of the CRF-binding protein and CRF-R2 receptor complex. It is filed as functional. As to conditions: read-out: IC50_Mean.

Test [2] concerns the target T1, Corticotropin-releasing factor receptor 2/Corticotropin-releasing factor-binding protein. The experiment in a line: activators of CRF receptor 2 with binding protein – uHTS hits, confirmation (AID 602473). The format is functional. The note with it: read-out: EC50_Mean.
A short description of test [3]: blockers of CRF-binding protein–CRF-R2 complex – cell-based, uHTS hits, 384-well, dose response (AID 651639). The format is functional, Homo sapiens. The note with it: read-out: IC50_Mean.
The target in a further test is T2, Caspase-3 (Homo sapiens, UniProt P42574).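 Further: Dose-response selectivity test against caspase-3 for candidate inhibitors of sentrin-specific proteases (SENPs).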
T2 sequence (P42574 whole entry): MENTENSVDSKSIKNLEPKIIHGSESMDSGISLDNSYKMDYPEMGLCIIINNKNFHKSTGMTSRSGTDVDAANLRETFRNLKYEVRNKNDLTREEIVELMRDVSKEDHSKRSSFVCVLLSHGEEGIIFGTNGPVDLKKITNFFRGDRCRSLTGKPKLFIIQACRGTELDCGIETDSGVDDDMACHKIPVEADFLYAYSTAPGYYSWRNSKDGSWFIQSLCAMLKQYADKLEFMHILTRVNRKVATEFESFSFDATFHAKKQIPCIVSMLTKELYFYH
It is filed as functional.

The target in test [4] is T3, Sentrin-specific protease 7 (Homo sapiens, UniProt Q9BQF6).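 Further: Luminescence-based dose-response confirmation of ultra-high-throughput screening hits, measuring inhibition of SENP7.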
T3 sequence (Q9BQF6 whole entry): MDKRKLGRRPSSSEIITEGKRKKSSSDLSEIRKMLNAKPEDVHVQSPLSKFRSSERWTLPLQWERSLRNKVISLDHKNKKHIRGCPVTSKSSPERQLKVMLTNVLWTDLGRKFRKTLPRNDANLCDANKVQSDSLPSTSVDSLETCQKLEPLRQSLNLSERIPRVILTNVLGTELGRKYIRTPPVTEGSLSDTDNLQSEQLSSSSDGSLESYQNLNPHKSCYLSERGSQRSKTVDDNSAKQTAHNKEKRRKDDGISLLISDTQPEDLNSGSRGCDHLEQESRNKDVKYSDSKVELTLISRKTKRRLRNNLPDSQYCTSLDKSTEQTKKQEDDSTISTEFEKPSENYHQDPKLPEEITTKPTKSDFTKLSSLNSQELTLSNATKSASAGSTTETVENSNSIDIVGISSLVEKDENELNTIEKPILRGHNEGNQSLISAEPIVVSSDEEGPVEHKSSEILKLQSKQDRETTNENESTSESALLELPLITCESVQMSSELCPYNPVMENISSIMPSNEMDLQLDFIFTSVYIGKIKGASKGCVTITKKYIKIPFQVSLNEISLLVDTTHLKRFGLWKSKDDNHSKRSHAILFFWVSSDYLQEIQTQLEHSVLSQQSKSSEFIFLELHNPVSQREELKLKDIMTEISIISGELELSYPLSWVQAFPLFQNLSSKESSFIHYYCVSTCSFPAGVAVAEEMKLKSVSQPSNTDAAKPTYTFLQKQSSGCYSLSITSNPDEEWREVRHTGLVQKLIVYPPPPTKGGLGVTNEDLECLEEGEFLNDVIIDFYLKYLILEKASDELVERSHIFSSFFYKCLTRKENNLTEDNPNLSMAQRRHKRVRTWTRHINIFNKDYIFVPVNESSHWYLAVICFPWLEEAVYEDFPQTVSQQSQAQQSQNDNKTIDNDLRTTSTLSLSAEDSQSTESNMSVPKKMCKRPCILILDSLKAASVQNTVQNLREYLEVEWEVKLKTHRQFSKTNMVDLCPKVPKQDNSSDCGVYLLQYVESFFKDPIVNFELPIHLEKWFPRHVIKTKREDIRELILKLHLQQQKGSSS
It is filed as functional.

Test [5] deals with T4, Sentrin-specific protease 6 (Homo sapiens, UniProt Q9GZR1).
T4 sequence (Q9GZR1 whole entry): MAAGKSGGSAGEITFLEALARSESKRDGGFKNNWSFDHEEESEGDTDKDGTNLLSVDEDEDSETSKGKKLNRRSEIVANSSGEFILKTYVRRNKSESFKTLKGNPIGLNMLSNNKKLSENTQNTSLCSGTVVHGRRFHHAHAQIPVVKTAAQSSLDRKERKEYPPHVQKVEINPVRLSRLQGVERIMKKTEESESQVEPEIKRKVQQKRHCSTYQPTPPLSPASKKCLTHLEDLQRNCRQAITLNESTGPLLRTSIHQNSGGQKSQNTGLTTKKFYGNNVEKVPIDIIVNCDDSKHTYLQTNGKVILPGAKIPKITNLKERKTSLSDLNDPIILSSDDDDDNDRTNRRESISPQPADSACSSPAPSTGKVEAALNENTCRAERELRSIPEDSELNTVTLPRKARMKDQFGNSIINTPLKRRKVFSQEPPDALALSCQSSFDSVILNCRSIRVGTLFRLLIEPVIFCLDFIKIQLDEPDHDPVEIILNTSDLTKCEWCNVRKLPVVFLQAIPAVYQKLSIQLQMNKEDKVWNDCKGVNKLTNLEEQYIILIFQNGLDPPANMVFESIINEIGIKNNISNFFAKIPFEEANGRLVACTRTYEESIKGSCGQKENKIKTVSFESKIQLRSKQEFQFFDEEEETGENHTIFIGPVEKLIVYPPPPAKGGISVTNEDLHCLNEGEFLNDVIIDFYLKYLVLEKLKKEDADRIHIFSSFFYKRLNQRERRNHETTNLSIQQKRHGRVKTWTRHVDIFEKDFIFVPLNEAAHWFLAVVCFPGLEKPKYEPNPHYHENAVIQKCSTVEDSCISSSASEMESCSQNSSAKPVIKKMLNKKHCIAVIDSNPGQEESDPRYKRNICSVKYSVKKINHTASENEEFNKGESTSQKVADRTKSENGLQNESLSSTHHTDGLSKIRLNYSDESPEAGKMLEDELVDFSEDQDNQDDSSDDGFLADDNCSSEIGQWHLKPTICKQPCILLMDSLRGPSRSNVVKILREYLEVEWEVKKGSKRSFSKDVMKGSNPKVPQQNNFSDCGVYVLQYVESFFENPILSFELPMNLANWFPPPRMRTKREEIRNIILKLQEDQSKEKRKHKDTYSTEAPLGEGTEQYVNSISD
It is filed as functional.

Test [6] addresses T5, Sentrin-specific protease 8 (Homo sapiens, UniProt Q96LD8).
T5 sequence (Q96LD8 whole entry): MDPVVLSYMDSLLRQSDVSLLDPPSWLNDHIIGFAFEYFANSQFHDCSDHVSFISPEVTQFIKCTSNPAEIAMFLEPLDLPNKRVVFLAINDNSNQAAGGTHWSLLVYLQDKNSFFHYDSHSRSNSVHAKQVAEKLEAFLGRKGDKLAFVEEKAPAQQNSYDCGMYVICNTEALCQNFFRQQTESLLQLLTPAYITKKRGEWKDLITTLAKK
It is filed as functional.

Test [7] concerns the target T6, Mitochondrial peptide methionine sulfoxide reductase (Bos taurus, UniProt P54149).
T6 sequence (P54149 whole entry): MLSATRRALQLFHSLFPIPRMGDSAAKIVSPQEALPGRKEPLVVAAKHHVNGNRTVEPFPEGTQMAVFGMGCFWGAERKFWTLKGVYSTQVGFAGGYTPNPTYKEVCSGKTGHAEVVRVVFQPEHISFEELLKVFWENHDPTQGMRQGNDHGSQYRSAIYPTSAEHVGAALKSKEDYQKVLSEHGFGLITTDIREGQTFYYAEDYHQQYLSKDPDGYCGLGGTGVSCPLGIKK
The experiment in a line: Absorbance-based biochemical high throughput dose response assay for activators of Methionine sulfoxide reductase A (MsrA). It is filed as functional.

The target in test [8] is DNA repair and recombination protein RAD54-like (Homo sapiens, UniProt Q92698). The experiment in a line: RAD54 Holliday junction migration blockers – biochemical, fluorescence, cherry-picked samples, dose series, confirmation (AID 651657). It is filed as functional.
DNA repair and recombination protein RAD54-like, sequence (Q92698 whole entry): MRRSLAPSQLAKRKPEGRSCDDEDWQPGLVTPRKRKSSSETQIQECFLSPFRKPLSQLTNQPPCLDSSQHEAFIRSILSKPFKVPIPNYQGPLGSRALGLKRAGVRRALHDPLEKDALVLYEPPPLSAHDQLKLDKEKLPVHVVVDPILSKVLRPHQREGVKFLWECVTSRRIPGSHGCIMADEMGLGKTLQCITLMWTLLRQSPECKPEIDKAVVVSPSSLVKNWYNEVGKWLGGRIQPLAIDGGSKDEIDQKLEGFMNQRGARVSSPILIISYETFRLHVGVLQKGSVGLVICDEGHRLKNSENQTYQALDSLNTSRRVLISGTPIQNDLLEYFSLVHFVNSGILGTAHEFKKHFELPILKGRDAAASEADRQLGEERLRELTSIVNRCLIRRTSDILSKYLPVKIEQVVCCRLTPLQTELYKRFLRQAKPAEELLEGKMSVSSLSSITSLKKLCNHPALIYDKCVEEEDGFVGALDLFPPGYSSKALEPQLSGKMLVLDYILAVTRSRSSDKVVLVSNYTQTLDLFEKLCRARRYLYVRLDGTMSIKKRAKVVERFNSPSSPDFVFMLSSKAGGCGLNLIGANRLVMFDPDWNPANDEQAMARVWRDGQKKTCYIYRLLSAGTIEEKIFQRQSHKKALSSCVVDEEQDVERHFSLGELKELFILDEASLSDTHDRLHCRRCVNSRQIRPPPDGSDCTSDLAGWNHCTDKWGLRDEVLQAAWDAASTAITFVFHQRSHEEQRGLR
Test [9] addresses Tyrosine-protein phosphatase non-receptor type 11 (Homo sapiens, UniProt Q06124). The experiment in a line: PTPN11 enzyme inhibitors – biochemical, selectivity assay for STEP inhibitor project, dose response (AID 602367). It is filed as functional. The note with it: read-out: IC50_Mean.
Test [10] has as its target Tyrosine-protein phosphatase non-receptor type 5 (Homo sapiens, UniProt P54829). The experiment in a line: PTPN5 enzyme inhibition – biochemical, fluorescence intensity, uHTS hits, confirmation (AID 602372). It is filed as functional. The note with it: read-out: IC50_Mean.
Test [11] addresses Dual specificity protein phosphatase 3 (Homo sapiens, UniProt P51452). Description: VHR phosphatase inhibition, dose response, selectivity assay for STEP inhibitor project, biochemical (AID 602374). It is filed as functional. The note with it: read-out: IC50_Mean.
Test [12] concerns the target DNA (cytosine-5)-methyltransferase 1 (Homo sapiens, UniProt P26358). The experiment in a line: inhibition of DNA methylation by DNMT1 – biochemical, fluorescent molecular beacon, confirmation (AID 602386). The format is functional.
Test [13] concerns the target T7, Ubiquitin-conjugating enzyme E2 N (Homo sapiens, UniProt P61088).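 Further: Dose-response confirmation in a TR-FRET assay detecting UBC13-driven polyubiquitin chain formation, inhibition measured.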
T7 sequence (P61088 whole entry): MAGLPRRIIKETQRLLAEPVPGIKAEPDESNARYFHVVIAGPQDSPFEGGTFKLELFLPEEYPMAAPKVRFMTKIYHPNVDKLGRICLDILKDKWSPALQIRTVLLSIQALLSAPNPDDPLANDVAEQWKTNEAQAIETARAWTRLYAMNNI
It is filed as functional.

Test [14] has as its target T8, Low molecular weight phosphotyrosine protein phosphatase (Homo sapiens, UniProt P24666).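 Further: Dose-response confirmation assay measuring inhibition of LMPTP enzyme activity by fluorescence intensity read-out.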
T8 sequence (P24666 whole entry): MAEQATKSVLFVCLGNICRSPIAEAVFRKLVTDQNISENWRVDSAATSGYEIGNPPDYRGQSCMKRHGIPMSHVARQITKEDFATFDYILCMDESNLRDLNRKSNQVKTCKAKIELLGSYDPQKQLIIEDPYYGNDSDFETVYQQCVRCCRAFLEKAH
The format is functional. The note with it: read-out: IC50_Mean.

The target of the next test is Albumin (Bos taurus, UniProt P02769). The experiment in a line: Counterscreen for inhibitors of T-cell receptor (TCR)-CD3 interaction: Fluorescence-based biochemical high throughput dose response assay to identify inhibitors of T-cell receptor (TCR)-CD3 interaction using a TAMRA-labeled BSA probe. The format is functional. (In general: The purpose of a counterscreen is to sort out artefacts and off-target activity.)
Albumin, sequence (P02769 whole entry): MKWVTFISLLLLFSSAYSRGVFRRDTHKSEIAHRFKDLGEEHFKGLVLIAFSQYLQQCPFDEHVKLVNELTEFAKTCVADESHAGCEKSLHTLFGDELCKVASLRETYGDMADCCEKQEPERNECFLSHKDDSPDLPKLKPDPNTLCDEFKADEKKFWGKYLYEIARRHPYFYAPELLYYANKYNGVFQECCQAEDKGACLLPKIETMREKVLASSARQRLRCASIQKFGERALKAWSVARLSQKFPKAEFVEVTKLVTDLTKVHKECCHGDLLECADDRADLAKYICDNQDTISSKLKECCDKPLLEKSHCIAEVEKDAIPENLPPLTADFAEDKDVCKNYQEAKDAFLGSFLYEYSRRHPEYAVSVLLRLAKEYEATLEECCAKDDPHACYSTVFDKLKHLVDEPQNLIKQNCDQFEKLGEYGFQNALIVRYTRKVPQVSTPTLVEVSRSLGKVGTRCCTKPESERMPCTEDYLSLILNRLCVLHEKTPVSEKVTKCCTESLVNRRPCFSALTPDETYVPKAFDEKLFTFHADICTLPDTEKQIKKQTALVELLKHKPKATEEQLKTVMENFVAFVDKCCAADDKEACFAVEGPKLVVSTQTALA

For test [15], the target named is T9, DNA repair protein RAD52 homolog (Homo sapiens, UniProt P43351).
T9 sequence (P43351 whole entry): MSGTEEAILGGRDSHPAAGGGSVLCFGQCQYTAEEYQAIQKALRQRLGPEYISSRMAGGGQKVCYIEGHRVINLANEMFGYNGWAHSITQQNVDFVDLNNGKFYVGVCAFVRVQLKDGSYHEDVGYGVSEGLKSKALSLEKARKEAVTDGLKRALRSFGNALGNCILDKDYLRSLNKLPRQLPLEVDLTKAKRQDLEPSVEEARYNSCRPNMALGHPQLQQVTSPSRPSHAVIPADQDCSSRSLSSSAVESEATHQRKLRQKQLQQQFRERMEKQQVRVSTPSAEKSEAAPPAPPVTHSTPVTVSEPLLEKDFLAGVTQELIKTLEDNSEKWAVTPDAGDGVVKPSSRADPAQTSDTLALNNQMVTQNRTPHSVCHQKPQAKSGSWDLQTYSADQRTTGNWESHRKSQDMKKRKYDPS
It is filed as functional, biochemical.

Dual specificity protein phosphatase 3, sequence (P51452 whole entry): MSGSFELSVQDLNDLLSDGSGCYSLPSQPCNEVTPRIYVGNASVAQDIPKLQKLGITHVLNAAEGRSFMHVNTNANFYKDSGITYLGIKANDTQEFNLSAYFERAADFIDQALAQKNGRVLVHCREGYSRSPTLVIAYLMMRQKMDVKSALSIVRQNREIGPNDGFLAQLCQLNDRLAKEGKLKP
Tyrosine-protein phosphatase non-receptor type 5, sequence (P54829 whole entry): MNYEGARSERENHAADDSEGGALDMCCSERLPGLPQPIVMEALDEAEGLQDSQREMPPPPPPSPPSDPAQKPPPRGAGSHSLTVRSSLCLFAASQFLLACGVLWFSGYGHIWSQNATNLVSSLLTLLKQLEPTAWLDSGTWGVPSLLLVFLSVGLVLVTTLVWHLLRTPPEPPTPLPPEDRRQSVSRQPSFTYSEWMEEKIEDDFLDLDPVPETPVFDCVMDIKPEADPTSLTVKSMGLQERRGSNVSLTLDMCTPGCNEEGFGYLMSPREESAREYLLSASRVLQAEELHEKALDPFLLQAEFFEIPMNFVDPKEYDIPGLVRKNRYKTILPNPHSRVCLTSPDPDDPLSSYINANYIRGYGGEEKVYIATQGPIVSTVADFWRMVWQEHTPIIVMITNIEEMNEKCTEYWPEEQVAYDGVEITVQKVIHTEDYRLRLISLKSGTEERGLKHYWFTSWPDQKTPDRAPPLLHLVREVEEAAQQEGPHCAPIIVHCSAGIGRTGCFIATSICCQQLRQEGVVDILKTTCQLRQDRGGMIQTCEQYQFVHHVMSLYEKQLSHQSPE
DNA (cytosine-5)-methyltransferase 1, sequence (P26358 whole entry): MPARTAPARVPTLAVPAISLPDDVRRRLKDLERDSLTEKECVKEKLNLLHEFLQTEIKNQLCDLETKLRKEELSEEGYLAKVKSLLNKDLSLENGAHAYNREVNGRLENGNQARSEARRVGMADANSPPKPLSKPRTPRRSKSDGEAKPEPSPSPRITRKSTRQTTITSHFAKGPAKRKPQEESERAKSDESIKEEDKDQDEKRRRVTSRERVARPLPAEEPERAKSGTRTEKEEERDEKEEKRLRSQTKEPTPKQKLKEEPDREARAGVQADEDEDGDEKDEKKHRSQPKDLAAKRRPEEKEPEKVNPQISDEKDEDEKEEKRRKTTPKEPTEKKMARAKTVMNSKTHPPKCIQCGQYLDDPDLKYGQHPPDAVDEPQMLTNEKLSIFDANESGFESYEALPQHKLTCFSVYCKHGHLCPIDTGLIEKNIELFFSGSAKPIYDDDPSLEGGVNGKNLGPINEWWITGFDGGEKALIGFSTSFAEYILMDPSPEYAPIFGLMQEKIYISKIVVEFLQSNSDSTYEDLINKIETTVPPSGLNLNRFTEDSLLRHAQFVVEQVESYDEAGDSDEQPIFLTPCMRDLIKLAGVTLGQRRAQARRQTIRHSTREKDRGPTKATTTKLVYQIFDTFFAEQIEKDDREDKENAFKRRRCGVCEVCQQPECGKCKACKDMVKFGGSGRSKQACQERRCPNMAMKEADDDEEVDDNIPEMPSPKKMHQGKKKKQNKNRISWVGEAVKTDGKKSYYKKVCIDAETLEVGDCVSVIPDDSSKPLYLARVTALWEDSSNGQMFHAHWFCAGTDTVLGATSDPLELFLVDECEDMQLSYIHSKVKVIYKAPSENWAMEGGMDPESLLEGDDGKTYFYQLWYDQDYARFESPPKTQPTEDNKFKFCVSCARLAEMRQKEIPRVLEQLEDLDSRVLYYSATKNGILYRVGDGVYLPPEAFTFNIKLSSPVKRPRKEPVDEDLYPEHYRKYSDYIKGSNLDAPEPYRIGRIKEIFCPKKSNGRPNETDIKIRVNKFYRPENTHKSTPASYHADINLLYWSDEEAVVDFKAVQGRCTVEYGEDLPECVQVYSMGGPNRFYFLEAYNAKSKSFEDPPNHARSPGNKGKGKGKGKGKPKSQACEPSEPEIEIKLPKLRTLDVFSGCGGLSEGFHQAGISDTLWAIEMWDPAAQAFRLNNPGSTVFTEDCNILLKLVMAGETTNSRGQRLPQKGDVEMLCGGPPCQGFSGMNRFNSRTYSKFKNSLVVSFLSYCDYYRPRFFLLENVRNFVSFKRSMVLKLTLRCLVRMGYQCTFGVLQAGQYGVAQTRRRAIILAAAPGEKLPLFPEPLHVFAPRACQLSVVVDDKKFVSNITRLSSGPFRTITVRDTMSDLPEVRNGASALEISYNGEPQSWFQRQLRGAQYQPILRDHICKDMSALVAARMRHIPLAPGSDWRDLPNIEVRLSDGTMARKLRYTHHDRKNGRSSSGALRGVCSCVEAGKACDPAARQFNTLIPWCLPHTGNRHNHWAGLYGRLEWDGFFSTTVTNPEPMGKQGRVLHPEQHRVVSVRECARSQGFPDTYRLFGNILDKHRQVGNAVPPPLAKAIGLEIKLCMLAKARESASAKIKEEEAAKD
Tyrosine-protein phosphatase non-receptor type 11, sequence (Q06124 whole entry): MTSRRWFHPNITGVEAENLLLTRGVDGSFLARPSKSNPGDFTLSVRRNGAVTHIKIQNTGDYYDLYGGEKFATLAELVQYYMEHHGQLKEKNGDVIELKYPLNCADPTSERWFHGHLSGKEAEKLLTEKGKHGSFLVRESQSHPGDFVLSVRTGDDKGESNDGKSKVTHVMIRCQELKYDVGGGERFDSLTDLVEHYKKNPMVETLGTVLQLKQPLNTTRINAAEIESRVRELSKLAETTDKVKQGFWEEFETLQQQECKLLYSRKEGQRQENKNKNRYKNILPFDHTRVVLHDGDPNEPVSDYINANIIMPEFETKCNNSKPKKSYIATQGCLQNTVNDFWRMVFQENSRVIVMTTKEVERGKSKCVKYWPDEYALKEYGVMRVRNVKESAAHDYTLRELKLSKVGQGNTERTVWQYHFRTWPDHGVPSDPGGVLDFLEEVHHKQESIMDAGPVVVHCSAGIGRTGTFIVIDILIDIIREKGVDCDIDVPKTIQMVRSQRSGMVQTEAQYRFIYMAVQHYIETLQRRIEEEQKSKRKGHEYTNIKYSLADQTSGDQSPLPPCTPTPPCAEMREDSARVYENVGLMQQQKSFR

On to `O=C(COC(=O)C1(c2ccc(F)cc2)CCCC1)NCc1ccc2c(c1)OCO2`, for which the IC50 in test [1] is < 0.368 µM (active); in [3] it was 11.1 µM (active). Also, in test [2], the EC50 was > 53 µM (inactive).
Take `COc1ccc(S(=O)(=O)N2CCOCC2)cc1NC(=O)COC(=O)c1ccc([N+](=O)[O-])s1`: the IC50 on Caspase-3 is 17.1 µM (active); in test [4] it was 9.28 µM (active); in test [5], 6.27 µM (active); in test [6], 6.06 µM (active). In addition, in [7], the EC50 was 40 µM (inactive).
`O=C(Nc1ccccc1)c1cc(S(=O)(=O)N2CCOCC2)cs1`: the concentration at half-maximal activity (AC50) in test [8] is 70.3 µM (active).
Take `COc1cc(Cl)ccc1N=C(S)N(CCCN1CCOCC1)Cc1cn(C)c2ccccc12`: the IC50 was 2.07 µM (active) in test [9], 20.8 µM (inactive) in test [10] and 1.03 µM (active) in test [11].
For `O=C1Nc2c(Cl)cc(Cl)cc2C1=O`, in test [12], the IC50 was 11.8 µM (active). Further, the EC50 in test [7] was > 104 µM (inactive).
On to `Cc1ccc(-c2nc3cc(C(=O)NCCCn4ccnc4)ccc3c(O)c2O)cc1`, for which the IC50 in [13] is > 20 µM (inactive); in [14] it was 16 µM (active); on Albumin, > 94.1 µM (inactive). The AC50 in test [15] is 7.05 µM (active).

What is called AC50 is the concentration giving half of the maximal activity seen.
